Test results published in patent publication US11382902B2, “Treatment of cancer by stimulation of IL-12 production” (Macrophage Pharma Limited, priority 2017, dated 2022).

Columns and labels:
[1] = target: p38 MAPK (Homo sapiens, UniProt Q16539); assay: Inhibition of p38 MAPK; assay type: biochemical
[2] = test system: IL-12p70 production in PBMCs stimulated with LPS; assay: Stimulation of IL-12p70 in human PBMCs stimulated with LPS (ELISA / multiplex immunoassay); assay type: cell-based; details: PBMC, LPS 1 μg/mL, 72 hrs culture, read-out: Stimulation of IL-12p70 in PBMC's stimulated with LPS EC50
Method: (§1) Human PBMCs from six healthy donors were isolated from whole blood. PBMCs were resuspended in RPMI-10 at 1×10^6/mL and plated at a density of 2×10^5 per well (200 μL) in 96-well round bottom culture plates. Treatments or reference controls at different concentrations were prepared in DMSO according to client/supplier instruction and added directly to wells at a final volume of 0.2 μL per well (1:1000). After 2 hours, LPS was added to the culture (1 μg/mL final, 10 μL per well). Cells were cultured for 72 hrs at 37° C. and 5% CO2. Cell-free supernatants were collected at the end of culture period, transferred to new 96-well plates and frozen at −80° C. prior to assessment of IFN-γ, IL-10, IL-12p70 and TNF-α by ELISA and multiplex immunoassay.
(§2) Cultures were performed in triplicate to provide technical replicates and PBMCs from six healthy donors were included to provide biological replication.
(§3) All test and reference substances were formulated at 10 mM stock concentration in anhydrous DMSO, filtered and frozen in aliquots. Immediately prior to addition to assay, stock solutions were diluted in DMSO to prepare solutions at 1000 times the final required concentration. All final formulations were freshly prepared and kept sterile and light protected prior to the addition in cultures.
(§4) ELISA plates were read at 450 nm using an Infinite F50 (Tecan) absorbance reader and Magellan™ reader control and data analysis software. Multiplex immunoassays were read using a Luminex MAGPIX multiplexing system and ProcartaPlex Analyst 1.0 software. Graphs were prepared using Graphpad Prism (v6.0). Data were normalised to mean of respective vehicle control group (100%) within each biological replicate to account for donor variation.

[3] = test system: IFN-γ production in PBMCs stimulated with LPS; assay: Stimulation of IFN-γ in human PBMCs stimulated with LPS (ELISA / multiplex immunoassay); assay type: cell-based; details: LPS 1 μg/mL, 72 hrs culture
Method: as §1, §2, §3, §4

[4] = test system: IL10 production in PBMCs stimulated with LPS; assay: Inhibition of IL10 in human PBMCs stimulated with LPS (ELISA / multiplex immunoassay); assay type: cell-based; details: for IC50: PBMC, human PBMCs, LPS 1 μg/mL, 72 hrs culture, read-out: Inhibition of IL10 in PBMC's stimulated with LPS IC50
Method: as §1, §2, §3, §4

[5] = versus 6-Amino-5-(2,4-difluorobenzoyl)-1-[2,6-difluorophenyl]pyridin-2(1H)-one and PH797804

Chain of p38 MAPK (Q16539 whole entry): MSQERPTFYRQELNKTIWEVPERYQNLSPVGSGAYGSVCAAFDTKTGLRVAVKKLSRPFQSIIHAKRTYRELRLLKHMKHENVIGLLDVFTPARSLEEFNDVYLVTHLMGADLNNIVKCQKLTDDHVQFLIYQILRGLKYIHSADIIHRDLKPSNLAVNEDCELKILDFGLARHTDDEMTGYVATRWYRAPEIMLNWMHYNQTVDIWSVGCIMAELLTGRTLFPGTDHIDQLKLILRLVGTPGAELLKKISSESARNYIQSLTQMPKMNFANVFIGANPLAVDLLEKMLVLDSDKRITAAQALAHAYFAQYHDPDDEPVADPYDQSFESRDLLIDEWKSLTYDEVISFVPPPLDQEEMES

| SMILES | EC50 [1] [nM] | Fold less potent inhibitory activity against p38 MAPK than the reference inhibitors [1, 5] [fold] | EC50 [2] [nM] | EC50 ([3]; PBMC, read-out: Stimulation of INF-γ in PBMCs stimulated with LPS EC50) [nM] | IC50 [4] [nM] | IL10 production inhibited at concentrations fold lower than conventional p38 MAPK inhibitors [4, 5] | Stimulation of INF-γ in PBMCs stimulated with LPS EC50 (nM) [3] |
| --- | --- | --- | --- | --- | --- | --- | --- |
| C[C@H](NCCc1cc(F)c(-n2c(N)c(C(=O)c3ccc(F)cc3F)ccc2=O)c(F)c1)C(=O)OC(C)(C)C [tert-Butyl N-(2-{4-[6-amino-5-(2,4-difluorobenzoyl)-2-oxopyridin-1(2H)-yl]-3,5-difluorophenyl}ethyl)-L-alaninate] | 12 | 10 | < 1 | 1 | < 1 | at least 10 fold |  |
| Nc1c(C(=O)c2ccc(F)cc2F)ccc(=O)n1-c1c(F)cccc1F [6-Amino-5-(2,4-difluorobenzoyl)-1-[2,6-difluorophenyl]pyridin-2(1H)-one] | < 1 |  | > 300 |  | 10 |  | No stimulation |
| CNC(=O)c1ccc(C)c(-n2c(C)cc(OCc3ccc(F)cc3F)c(Br)c2=O)c1 [PH797804, 3-[3-Bromo-4-[(2,4-difluorophenyl)methoxy]-6-methyl-2-oxo-1(2H)-pyridinyl]-N,4-dimethyl-benzamide] |  |  | > 300 |  | 10 |  | No stimulation |
